Source: PubChem BioAssay (NCI)
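Values below derive from 48-hour exposures of cells grown in 96-well plates, with endpoints linearly interpolated between the two concentrations bracketing the appropriate inhibition level. Definition used: TGI = concentration required for complete inhibition of growth.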

Key:
Assay in all cases: NCI-60 cell line screen, 48 h
M14 melanoma = test system: M14 melanoma
SK-OV-3 ovarian = test system: SK-OV-3 ovarian
SF-295 CNS = test system: SF-295 CNS
SK-MEL-28 melanoma = test system: SK-MEL-28 melanoma
TK-10 renal = test system: TK-10 renal
NCI/ADR-RES ovarian = test system: NCI/ADR-RES ovarian
PC-3 prostate = test system: PC-3 prostate
BT-549 breast = test system: BT-549 breast
RXF 393 renal = test system: RXF 393 renal
UO-31 renal = test system: UO-31 renal
NCI-H226 lung = test system: NCI-H226 lung
HT29 colon = test system: HT29 colon
A498 renal = test system: A498 renal
MOLT-4 leukemia = test system: MOLT-4 leukemia
OVCAR-4 ovarian = test system: OVCAR-4 ovarian
ACHN renal = test system: ACHN renal
SNB-75 CNS = test system: SNB-75 CNS
CCRF-CEM leukemia = test system: CCRF-CEM leukemia
MALME-3M melanoma = test system: MALME-3M melanoma
OVCAR-3 ovarian = test system: OVCAR-3 ovarian
MCF7 breast = test system: MCF7 breast
SNB-19 CNS = test system: SNB-19 CNS
HCC-2998 colon = test system: HCC-2998 colon
MDA-N = test system: MDA-N
NCI-H23 lung = test system: NCI-H23 lung
HOP-62 NSCLC = test system: HOP-62 NSCLC
DU-145 prostate = test system: DU-145 prostate
UACC-62 melanoma = test system: UACC-62 melanoma
HOP-92 NSCLC = test system: HOP-92 NSCLC
OVCAR-8 ovarian = test system: OVCAR-8 ovarian
SN12C renal = test system: SN12C renal
NCI-H522 lung = test system: NCI-H522 lung
HL-60(TB) leukemia = test system: HL-60(TB) leukemia
MDA-MB-435 = test system: MDA-MB-435
SK-MEL-5 melanoma = test system: SK-MEL-5 melanoma
SW-620 colon = test system: SW-620 colon
NCI-H460 lung = test system: NCI-H460 lung
K-562 leukemia = test system: K-562 leukemia
SK-MEL-2 melanoma = test system: SK-MEL-2 melanoma
HS 578T breast = test system: HS 578T breast
UACC-257 melanoma = test system: UACC-257 melanoma
LOX IMVI melanoma = test system: LOX IMVI melanoma
RPMI-8226 leukemia = test system: RPMI-8226 leukemia
IGROV1 ovarian = test system: IGROV1 ovarian
CAKI-1 renal = test system: CAKI-1 renal
U251 CNS = test system: U251 CNS
SF-268 CNS = test system: SF-268 CNS
OVCAR-5 ovarian = test system: OVCAR-5 ovarian
HCT-116 colon = test system: HCT-116 colon
COLO 205 colon = test system: COLO 205 colon
MDA-MB-231 breast = test system: MDA-MB-231 breast
EKVX NSCLC = test system: EKVX NSCLC
T-47D breast = test system: T-47D breast
786-0 renal = test system: 786-0 renal
SF-539 CNS = test system: SF-539 CNS
KM12 colon = test system: KM12 colon
HCT-15 colon = test system: HCT-15 colon
SR leukemia = test system: SR leukemia
A549 NSCLC = test system: A549 NSCLC

## C[C@H]1[C@H](C)CC[C@]2(C(=O)OC3OC(CO)C(O)C(O)C3O)CC[C@]3(C)C(=CC[C@@H]4[C@@]5(C)C[C@@H](O)[C@@H]6OC(=O)c7cc(O)c(O)c(O)c7-c7c(cc(O)c(O)c7O)C(=O)OC[C@]6(CO)[C@@H]5CC[C@]43C)[C@H]12 (stereo partly drawn)
M14 melanoma
  TGI: > 100 µM
SK-OV-3 ovarian
  TGI: > 100 µM
SF-295 CNS
  TGI: > 91 µM
SK-MEL-28 melanoma
  TGI: > 100 µM
TK-10 renal
  TGI: > 100 µM
NCI/ADR-RES ovarian
  TGI: > 100 µM
PC-3 prostate
  TGI: > 100 µM
BT-549 breast
  TGI: > 100 µM
RXF 393 renal
  TGI: > 100 µM
UO-31 renal
  TGI: > 100 µM
NCI-H226 lung
  TGI: > 100 µM
HT29 colon
  TGI: > 55.8 µM
A498 renal
  TGI: > 100 µM
MOLT-4 leukemia
  TGI: 66.9 µM
OVCAR-4 ovarian
  TGI: 40.1 µM
ACHN renal
  TGI: > 100 µM
SNB-75 CNS
  TGI: > 100 µM
CCRF-CEM leukemia
  TGI: 69.2 µM
MALME-3M melanoma
  TGI: > 100 µM
OVCAR-3 ovarian
  TGI: > 72.1 µM
MCF7 breast
  TGI: 21.8 µM
SNB-19 CNS
  TGI: > 77.9 µM
HCC-2998 colon
  TGI: > 100 µM
MDA-N
  TGI: 51.1 µM
NCI-H23 lung
  TGI: > 100 µM
HOP-62 NSCLC
  TGI: > 71.1 µM
DU-145 prostate
  TGI: > 100 µM
UACC-62 melanoma
  TGI: > 100 µM
HOP-92 NSCLC
  TGI: > 100 µM
OVCAR-8 ovarian
  TGI: > 100 µM
SN12C renal
  TGI: > 100 µM
NCI-H522 lung
  TGI: 37.3 µM
HL-60(TB) leukemia
  TGI: 87.8 µM
MDA-MB-435
  TGI: 32.9 µM
SK-MEL-5 melanoma
  TGI: > 100 µM
SW-620 colon
  TGI: > 63.3 µM
NCI-H460 lung
  TGI: > 100 µM
K-562 leukemia
  TGI: > 100 µM
SK-MEL-2 melanoma
  TGI: > 100 µM
HS 578T breast
  TGI: > 100 µM
UACC-257 melanoma
  TGI: > 100 µM
LOX IMVI melanoma
  TGI: 25.8 µM
RPMI-8226 leukemia
  TGI: > 100 µM
IGROV1 ovarian
  TGI: > 100 µM
CAKI-1 renal
  TGI: > 53.3 µM
U251 CNS
  TGI: 34.7 µM
SF-268 CNS
  TGI: > 100 µM
OVCAR-5 ovarian
  TGI: > 100 µM
HCT-116 colon
  TGI: > 100 µM
COLO 205 colon
  TGI: > 100 µM
MDA-MB-231 breast
  TGI: 26.4 µM
EKVX NSCLC
  TGI: > 100 µM
T-47D breast
  TGI: > 100 µM
786-0 renal
  TGI: 32.9 µM
SF-539 CNS
  TGI: > 100 µM
KM12 colon
  TGI: > 76.3 µM
HCT-15 colon
  TGI: > 100 µM
SR leukemia
  TGI: 73.3 µM
A549 NSCLC
  TGI: > 100 µM

## Brc1ccc(C2CC3(c4ccccc4)ON=C(c4ccccc4)N3c3ccccc3S2)cc1 (stereo not drawn)
M14 melanoma
  TGI: > 100 µM
SK-OV-3 ovarian
  TGI: > 100 µM
SF-295 CNS
  TGI: > 100 µM
SK-MEL-28 melanoma
  TGI: > 100 µM
TK-10 renal
  TGI: > 100 µM
NCI/ADR-RES ovarian
  TGI: > 100 µM
PC-3 prostate
  TGI: > 100 µM
BT-549 breast
  TGI: > 100 µM
RXF 393 renal
  TGI: > 100 µM
UO-31 renal
  TGI: > 100 µM
NCI-H226 lung
  TGI: > 100 µM
HT29 colon
  TGI: > 100 µM
A498 renal
  TGI: > 100 µM
MOLT-4 leukemia
  TGI: > 100 µM
OVCAR-4 ovarian
  TGI: > 100 µM
ACHN renal
  TGI: > 100 µM
SNB-75 CNS
  TGI: > 100 µM
CCRF-CEM leukemia
  TGI: > 100 µM
MALME-3M melanoma
  TGI: > 100 µM
OVCAR-3 ovarian
  TGI: > 100 µM
MCF7 breast
  TGI: > 100 µM
SNB-19 CNS
  TGI: > 100 µM
HCC-2998 colon
  TGI: > 100 µM
MDA-N
  TGI: > 100 µM
NCI-H23 lung
  TGI: > 100 µM
HOP-62 NSCLC
  TGI: > 100 µM
DU-145 prostate
  TGI: > 100 µM
UACC-62 melanoma
  TGI: > 100 µM
HOP-92 NSCLC
  TGI: > 100 µM
OVCAR-8 ovarian
  TGI: > 100 µM
SN12C renal
  TGI: > 100 µM
NCI-H522 lung
  TGI: > 100 µM
HL-60(TB) leukemia
  TGI: > 100 µM
MDA-MB-435
  TGI: > 100 µM
SK-MEL-5 melanoma
  TGI: > 100 µM
SW-620 colon
  TGI: > 100 µM
NCI-H460 lung
  TGI: > 100 µM
K-562 leukemia
  TGI: > 100 µM
SK-MEL-2 melanoma
  TGI: > 100 µM
HS 578T breast
  TGI: > 100 µM
UACC-257 melanoma
  TGI: > 100 µM
LOX IMVI melanoma
  TGI: > 100 µM
IGROV1 ovarian
  TGI: > 100 µM
U251 CNS
  TGI: > 100 µM
SF-268 CNS
  TGI: > 100 µM
OVCAR-5 ovarian
  TGI: > 100 µM
HCT-116 colon
  TGI: > 100 µM
COLO 205 colon
  TGI: > 100 µM
MDA-MB-231 breast
  TGI: > 100 µM
EKVX NSCLC
  TGI: > 100 µM
T-47D breast
  TGI: > 100 µM
786-0 renal
  TGI: > 100 µM
SF-539 CNS
  TGI: > 100 µM
KM12 colon
  TGI: > 100 µM
HCT-15 colon
  TGI: > 100 µM
SR leukemia
  TGI: > 100 µM
A549 NSCLC
  TGI: > 100 µM

## CN(/N=C/c1ccccc1C(=O)O)C1=NCCCCN1
M14 melanoma
  TGI: > 100 µM
SK-OV-3 ovarian
  TGI: > 100 µM
SF-295 CNS
  TGI: > 100 µM
TK-10 renal
  TGI: > 100 µM
NCI/ADR-RES ovarian
  TGI: > 100 µM
PC-3 prostate
  TGI: > 100 µM
BT-549 breast
  TGI: > 100 µM
UO-31 renal
  TGI: > 100 µM
NCI-H226 lung
  TGI: > 100 µM
HT29 colon
  TGI: > 100 µM
A498 renal
  TGI: > 100 µM
MOLT-4 leukemia
  TGI: > 100 µM
OVCAR-4 ovarian
  TGI: > 100 µM
ACHN renal
  TGI: > 100 µM
SNB-75 CNS
  TGI: > 100 µM
CCRF-CEM leukemia
  TGI: > 100 µM
MALME-3M melanoma
  TGI: > 100 µM
OVCAR-3 ovarian
  TGI: > 100 µM
MCF7 breast
  TGI: > 100 µM
SNB-19 CNS
  TGI: > 100 µM
HCC-2998 colon
  TGI: > 100 µM
MDA-N
  TGI: > 100 µM
NCI-H23 lung
  TGI: > 100 µM
HOP-62 NSCLC
  TGI: > 100 µM
DU-145 prostate
  TGI: > 100 µM
UACC-62 melanoma
  TGI: > 100 µM
HOP-92 NSCLC
  TGI: > 100 µM
OVCAR-8 ovarian
  TGI: > 100 µM
SN12C renal
  TGI: > 100 µM
NCI-H522 lung
  TGI: 36.7 µM
HL-60(TB) leukemia
  TGI: > 100 µM
MDA-MB-435
  TGI: > 100 µM
SK-MEL-5 melanoma
  TGI: > 100 µM
SW-620 colon
  TGI: > 100 µM
NCI-H460 lung
  TGI: > 100 µM
K-562 leukemia
  TGI: > 100 µM
SK-MEL-2 melanoma
  TGI: > 100 µM
HS 578T breast
  TGI: > 100 µM
UACC-257 melanoma
  TGI: > 100 µM
LOX IMVI melanoma
  TGI: > 100 µM
RPMI-8226 leukemia
  TGI: > 100 µM
IGROV1 ovarian
  TGI: > 100 µM
CAKI-1 renal
  TGI: > 100 µM
U251 CNS
  TGI: > 100 µM
SF-268 CNS
  TGI: > 100 µM
OVCAR-5 ovarian
  TGI: > 100 µM
HCT-116 colon
  TGI: > 100 µM
COLO 205 colon
  TGI: > 100 µM
MDA-MB-231 breast
  TGI: > 100 µM
EKVX NSCLC
  TGI: > 100 µM
T-47D breast
  TGI: > 100 µM
786-0 renal
  TGI: > 100 µM
SF-539 CNS
  TGI: > 100 µM
KM12 colon
  TGI: > 100 µM
HCT-15 colon
  TGI: > 100 µM
SR leukemia
  TGI: > 100 µM
A549 NSCLC
  TGI: > 100 µM
